Test results: PubChem BioAssay AID2060503 (Molecular Pharmacology Branch, DTP, NCI, 2025)
pIC50: −log10 of the molar value.

Tested on: 817829-284-R-J1-PDC complex spheroids, viability
Test: Anticancer human tumor 817829-284-R-J1-PDC patient-derived colon adenocarcinoma cell line growth inhibition [GQUAD]
Conditions: for pIC50: curve of first compound; for viability, T/C: stronger effect = lower value
Outline: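 Viability of tumor cells grown as complex spheroids with endothelial and stromal cells, exposed to drug combinations. Top concentration at or near clinical Cmax (else 10 microM), diluted in half-log increments.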

[1] = second compound 0.0316 µM, first compound 0.0316 µM
[2] = second compound 0.0316 µM, first compound 0.1 µM
[3] = second compound 0.0316 µM, first compound 0.316 µM
[4] = second compound 0.0316 µM, first compound 1 µM
[5] = second compound 0.0316 µM, first compound 3.16 µM
[6] = second compound 0.0316 µM, first compound 10 µM
[7] = second compound 0.1 µM, first compound 0.0316 µM
[8] = second compound 0.1 µM, first compound 0.1 µM
[9] = second compound 0.1 µM, first compound 0.316 µM
[10] = second compound 0.1 µM, first compound 1 µM
[11] = second compound 0.1 µM, first compound 3.16 µM
[12] = second compound 0.1 µM, first compound 10 µM
[13] = second compound 0.316 µM, first compound 0.0316 µM
[14] = second compound 0.316 µM, first compound 0.1 µM
[15] = second compound 0.316 µM, first compound 0.316 µM
[16] = second compound 0.316 µM, first compound 1 µM
[17] = second compound 0.316 µM, first compound 3.16 µM
[18] = second compound 0.316 µM, first compound 10 µM
[19] = second compound 1 µM, first compound 0.0316 µM
[20] = second compound 1 µM, first compound 0.1 µM
[21] = second compound 1 µM, first compound 0.316 µM
[22] = second compound 1 µM, first compound 1 µM
[23] = second compound 1 µM, first compound 3.16 µM
[24] = second compound 1 µM, first compound 10 µM
[25] = second compound 3.16 µM, first compound 0.0316 µM
[26] = second compound 3.16 µM, first compound 0.1 µM
[27] = second compound 3.16 µM, first compound 0.316 µM
[28] = second compound 3.16 µM, first compound 1 µM
[29] = second compound 3.16 µM, first compound 3.16 µM
[30] = second compound 3.16 µM, first compound 10 µM
[31] = second compound 10 µM, first compound 0.0316 µM
[32] = second compound 10 µM, first compound 0.1 µM
[33] = second compound 10 µM, first compound 0.316 µM
[34] = second compound 10 µM, first compound 1 µM
[35] = second compound 10 µM, first compound 3.16 µM
[36] = second compound 10 µM, first compound 10 µM
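Further: spheroids exposed to agents for 7 days before readout.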
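Wherever viability, T/C is given: percent viability relative to DMSO vehicle control taken as 100%.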

Which results are given for `CC1COCCN1c1cc(-c2ccnn2C)c2ccnc(-c3ccn[nH]3)c2n1` (stereo unspecified) + Cc1[nH]c2ccc(F)cc2c1-c1nc2c3cccnc3c3ncccc3c2[nH]1?
pIC50 (second compound 0.0316 µM): 7.31; pIC50 (second compound 0.1 µM): > 7.50; pIC50 (second compound 0.316 µM): > 7.50; pIC50 (second compound 1 µM): > 7.50; pIC50 (second compound 3.16 µM): > 7.50; pIC50 (second compound 10 µM): > 7.50; viability, T/C [1]: 72.5%; viability, T/C [2]: 12.9%; viability, T/C [3]: 9.49%; viability, T/C [4]: 4.92%; viability, T/C [5]: 6.02%; viability, T/C [6]: 4.47%; viability, T/C [7]: 46.3%; viability, T/C [8]: 19.1%; viability, T/C [9]: 8.08%; viability, T/C [10]: 6.91%; viability, T/C [11]: 5.94%; viability, T/C [12]: 4.22%; viability, T/C [13]: 48.6%; viability, T/C [14]: 19.7%; viability, T/C [15]: 9.27%; viability, T/C [16]: 7.38%; viability, T/C [17]: 5.29%; viability, T/C [18]: 4.46%; viability, T/C [19]: 38.1%; viability, T/C [20]: 19.6%; viability, T/C [21]: 7.66%; viability, T/C [22]: 6.25%; viability, T/C [23]: 5.62%; viability, T/C [24]: 4.21%; viability, T/C [25]: 35.8%; viability, T/C [26]: 8.61%; viability, T/C [27]: 5.3%; viability, T/C [28]: 3.85%; viability, T/C [29]: 3.53%; viability, T/C [30]: 3.13%; viability, T/C [31]: 28.2%; viability, T/C [32]: 4.74%; viability, T/C [33]: 3.18%; viability, T/C [34]: 3.81%; viability, T/C [35]: 2.63%; viability, T/C [36]: 2.34%

What does the source list for `CC1COCCN1c1cc(C2(S(C)(=N)=O)CC2)nc(-c2ccnc3[nH]ccc23)n1` (stereo unspecified) + CN(C)c1ccc(Nc2c3ccc(NC(=O)CCN4CCCC4)cc3nc3cc(NC(=O)CCN4CCCC4)ccc23)cc1?
pIC50 (second compound 0.0316 µM): 6.23; pIC50 (second compound 0.1 µM): 6.21; pIC50 (second compound 0.316 µM): 6.23; pIC50 (second compound 1 µM): 6.25; pIC50 (second compound 3.16 µM): 6.24; pIC50 (second compound 10 µM): 6.41; viability, T/C [1]: 94.2%; viability, T/C [2]: 93.2%; viability, T/C [3]: 75.4%; viability, T/C [4]: 27.5%; viability, T/C [5]: 11.2%; viability, T/C [6]: 7.5%; viability, T/C [7]: 90.1%; viability, T/C [8]: 95.4%; viability, T/C [9]: 82.3%; viability, T/C [10]: 26.4%; viability, T/C [11]: 11.1%; viability, T/C [12]: 7.72%; viability, T/C [13]: 99%; viability, T/C [14]: 96.5%; viability, T/C [15]: 79.8%; viability, T/C [16]: 24.7%; viability, T/C [17]: 9.67%; viability, T/C [18]: 7.15%; viability, T/C [19]: 86%; viability, T/C [20]: 98.5%; viability, T/C [21]: 76%; viability, T/C [22]: 24.1%; viability, T/C [23]: 10.8%; viability, T/C [24]: 7.23%; viability, T/C [25]: 91.4%; viability, T/C [26]: 94.9%; viability, T/C [27]: 70.1%; viability, T/C [28]: 29.9%; viability, T/C [29]: 13%; viability, T/C [30]: 7.64%; viability, T/C [31]: 99.6%; viability, T/C [32]: 87.9%; viability, T/C [33]: 57.1%; viability, T/C [34]: 20.3%; viability, T/C [35]: 9.51%; viability, T/C [36]: 5%

Which results are given for `Cc1cccc(N(C)C(=O)C2C(O)CCN2c2nc(C)cc(C(F)(F)F)c2C#N)c1` (stereo unspecified) + Cc1cnc(CNC(=O)c2c(=O)c3ccc(N4CCCN(C)CC4)nc3n3c2sc2ccccc23)cn1?
pIC50 (second compound 0.0316 µM): < 5.00; pIC50 (second compound 0.1 µM): > 7.50; pIC50 (second compound 0.316 µM): > 7.50; pIC50 (second compound 1 µM): > 7.50; pIC50 (second compound 3.16 µM): > 7.50; pIC50 (second compound 10 µM): > 7.50; viability, T/C [1]: 85.6%; viability, T/C [2]: 82.6%; viability, T/C [3]: 81.8%; viability, T/C [4]: 53.1%; viability, T/C [5]: 91.4%; viability, T/C [6]: 75%; viability, T/C [7]: 38.5%; viability, T/C [8]: 36.7%; viability, T/C [9]: 29.3%; viability, T/C [10]: 36.1%; viability, T/C [11]: 39.3%; viability, T/C [12]: 33.9%; viability, T/C [13]: 27.7%; viability, T/C [14]: 30.4%; viability, T/C [15]: 26.6%; viability, T/C [16]: 25.9%; viability, T/C [17]: 28.6%; viability, T/C [18]: 23%; viability, T/C [19]: 19.2%; viability, T/C [20]: 22.1%; viability, T/C [21]: 22.1%; viability, T/C [22]: 20.2%; viability, T/C [23]: 22.9%; viability, T/C [24]: 19.1%; viability, T/C [25]: 20.1%; viability, T/C [26]: 18.9%; viability, T/C [27]: 20.4%; viability, T/C [28]: 18.8%; viability, T/C [29]: 18%; viability, T/C [30]: 17.2%; viability, T/C [31]: 0.19%; viability, T/C [32]: 0.22%; viability, T/C [33]: 0.21%; viability, T/C [34]: 0.21%; viability, T/C [35]: 0.24%; viability, T/C [36]: 0.21%
